{"source": "patent US6706663B2", "about": "“Herbicidal 3-heterocyclic substituted benzisothiazole and benzisoxazole compounds” (Wyeth, priority 2000, dated 2004)", "key": {"[1]": {"test_system": "ABUTH (Abutilon theophrasti)", "test": "Postemergence herbicidal evaluation", "assay_type": "in vivo, Medic.", "method_in_brief": "(§1)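 Seedlings grown for about two weeks were sprayed postemergence and then kept under standard greenhouse care. Injury was rated visually 4–5 weeks after treatment on a 0–9 scale against untreated controls, and ratings from repeat tests were averaged.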"}, "[2]": {"test_system": "AMBEL (Ambrosia artemisifolia)", "test": "Postemergence herbicidal evaluation", "assay_type": "in vivo, L.", "method_in_brief": "as §1"}, "[3]": {"test_system": "CASOB (Cassia obtusifolia)", "test": "Postemergence herbicidal evaluation", "assay_type": "in vivo, L.", "method_in_brief": "as §1"}, "[4]": {"test_system": "CHEAL (Chenopodium album)", "test": "Postemergence herbicidal evaluation", "assay_type": "in vivo, L.", "method_in_brief": "as §1"}, "GALAP (Galium aparine) [5]": {"test_system": "GALAP (Galium aparine)", "test": "Postemergence herbicidal evaluation", "assay_type": "in vivo", "method_in_brief": "as §1"}, "[6]": {"test_system": "IPOHE (Ipomoea hederacea)", "test": "Postemergence herbicidal evaluation", "assay_type": "in vivo, (L.) Jacq.", "method_in_brief": "as §1"}, "[7]": {"test_system": "ECHCG (Echinochloa crus-galli)", "test": "Postemergence herbicidal evaluation", "assay_type": "in vivo, (L.) Beau", "method_in_brief": "as §1"}, "[8]": {"test_system": "GLXMAW (Soybean, Williams)", "test": "Postemergence herbicidal evaluation", "assay_type": "in vivo, Glycine max, (L.) Merr. cv Williams", "method_in_brief": "as §1"}, "ZEAMX (Corn, Field) [9]": {"test_system": "ZEAMX (Corn, Field)", "test": "Postemergence herbicidal evaluation", "assay_type": "in vivo, Zea mays, L.", "method_in_brief": "as §1"}, "[10]": {"test_system": "AMBEL (Ambrosia artemisifolia)", "test": "Preemergence herbicidal evaluation", "assay_type": "in vivo, L.", "settings": "preemergence, rated 4-5 weeks after treatment", "method_in_brief": "(§2)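 Greenhouse preemergence test: freshly planted cups were sprayed once with an aqueous acetone solution of compound. Injury was judged visually on a 0–9 scale relative to a control, four to five weeks later.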"}, "[11]": {"test_system": "CASOB (Cassia obtusifolia)", "test": "Preemergence herbicidal evaluation", "assay_type": "in vivo, L.", "settings": "preemergence, rated 4-5 weeks after treatment", "method_in_brief": "as §2"}, "[12]": {"test_system": "CHEAL (Chenopodium album)", "test": "Preemergence herbicidal evaluation", "assay_type": "in vivo, L.", "settings": "preemergence, rated 4-5 weeks after treatment", "method_in_brief": "as §2"}, "GALAP (Galium aparine) [13]": {"test_system": "GALAP (Galium aparine)", "test": "Preemergence herbicidal evaluation", "assay_type": "in vivo", "settings": "preemergence, rated 4-5 weeks after treatment", "method_in_brief": "as §2"}, "[14]": {"test_system": "IPOHE (Ipomoea hederacea)", "test": "Preemergence herbicidal evaluation", "assay_type": "in vivo, (L.) Jacq.", "settings": "preemergence, rated 4-5 weeks after treatment"}, "[15]": {"test_system": "GLXMAW (Soybean, Williams)", "test": "Preemergence herbicidal evaluation", "assay_type": "in vivo, Glycine max, (L.) Merr. cv Williams", "settings": "preemergence, rated 4-5 weeks after treatment"}, "ORYSAT (Rice, Tebonnet)": {"test_system": "ORYSAT (Rice, Tebonnet)", "test": "Preemergence herbicidal evaluation", "assay_type": "in vivo, Oryza sativa, (L.) Tebonnet", "settings": "preemergence, rated 4-5 weeks after treatment"}, "[16]": {"test_system": "TRZAWR (Wheat, Winter, cv Riband)", "test": "Preemergence herbicidal evaluation", "assay_type": "in vivo, Triticum aestivum", "settings": "preemergence, rated 4-5 weeks after treatment", "method_in_brief": "as §2"}, "ZEAMX (Corn, Field) [17]": {"test_system": "ZEAMX (Corn, Field)", "test": "Preemergence herbicidal evaluation", "assay_type": "in vivo, Zea mays, L.", "settings": "preemergence, rated 4-5 weeks after treatment"}, "[18]": {"test_system": "ECHORC (Echinochloa oryzoides)", "test": "Flooded paddy, preemergence weed control", "assay_type": "in vivo, Echinochloa oryzoides (Ard.) Fritsch.", "settings": "rated 3-4 weeks after treatment, 0-9 rating scale", "method_in_brief": "(§3)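 Preemergence, flooded: propagules planted at 0.5 cm depth in silt loam, water level maintained at 1.5 to 3 cm over soil, containers kept on greenhouse benches. Activity scored 0-9 by eye relative to a control plant.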"}, "CYPIR (Cyperus iria)": {"test_system": "CYPIR (Cyperus iria)", "test": "Flooded paddy, preemergence weed control", "assay_type": "in vivo", "settings": "rated 3-4 weeks after treatment, 0-9 rating scale", "method_in_brief": "as §3"}, "[19]": {"test_system": "CYPSE (Cyperus serotinus)", "test": "Flooded paddy, preemergence weed control", "assay_type": "in vivo, Rottb.", "settings": "rated 3-4 weeks after treatment, 0-9 rating scale", "method_in_brief": "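Seeds or propagules were planted 0.5 cm deep in silt loam and flooded to 1.5–3 cm. Compounds in 50/50 v/v aqueous/acetone were pipetted into the flood water at about 0.0080 to 0.1250 kg/ha. After 3–4 weeks in the greenhouse, effect was rated visually on a 0–9 scale versus untreated control.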"}, "[20]": {"test_system": "SAGPY (Sagittaria pygmaea)", "test": "Flooded paddy, preemergence weed control", "assay_type": "in vivo, L.", "settings": "rated 3-4 weeks after treatment, 0-9 rating scale", "method_in_brief": "as §3"}}, "data": [{"compound": "CC1CCOC(c2nsc3ccc(-n4c(=O)cc(C(F)(F)F)n(C)c4=O)cc23)O1", "note": "(centres unmarked) [Compound 37, 1-methyl-3-[3-(4-methyl-m-dioxan-2-yl)-1,2-benzisothiazol-5-yl]-6-(trifluoromethyl)uracil]", "values": [{"measurement": "Postemergence herbicidal rating, ABUTH", "setting": "[1]; rate 0.0320 kg/ha", "value": 9.0}, {"measurement": "Postemergence herbicidal rating, ABUTH", "setting": "[1]; rate 0.0620 kg/ha", "value": 9.0}, {"measurement": "Postemergence herbicidal rating, AMBEL", "setting": "[2]; rate 0.0320 kg/ha", "value": 9.0}, {"measurement": "Postemergence herbicidal rating, AMBEL", "setting": "[2]; rate 0.0620 kg/ha", "value": 9.0}, {"measurement": "Postemergence herbicidal rating, CASOB", "setting": "[3]; rate 0.0320 kg/ha", "value": 4.0}, {"measurement": "Postemergence herbicidal rating, CASOB", "setting": "[3]; rate 0.0620 kg/ha", "value": 5.0}, {"measurement": "Postemergence herbicidal rating, CHEAL", "setting": "[4]; rate 0.0320 kg/ha", "value": 5.0}, {"measurement": "Postemergence herbicidal rating, CHEAL", "setting": "[4]; rate 0.0620 kg/ha", "value": 9.0}, {"measurement": "Postemergence herbicidal rating, GALAP", "setting": "GALAP (Galium aparine) [5]; rate 0.0320 kg/ha", "value": 4.0}, {"measurement": "Postemergence herbicidal rating, GALAP", "setting": "GALAP (Galium aparine) [5]; rate 0.0620 kg/ha", "value": 4.0}, {"measurement": "Postemergence herbicidal rating, IPOHE", "setting": "[6]; rate 0.0320 kg/ha", "value": 9.0}, {"measurement": "Postemergence herbicidal rating, IPOHE", "setting": "[6]; rate 0.0620 kg/ha", "value": 9.0}, {"measurement": "Postemergence herbicidal rating, ECHCG", "setting": "[7]; rate 0.0320 kg/ha", "value": 4.0}, {"measurement": "Postemergence herbicidal rating, ECHCG", "setting": "[7]; rate 0.0620 kg/ha", "value": 4.0}, {"measurement": "Postemergence herbicidal rating, GLXMAW", "setting": "[8]; rate 0.0320 kg/ha", "value": 9.0}, {"measurement": "Postemergence herbicidal rating, GLXMAW", "setting": "[8]; rate 0.0620 kg/ha", "value": 9.0}, {"measurement": "Postemergence herbicidal rating, ZEAMX", "setting": "ZEAMX (Corn, Field) [9]; rate 0.0320 kg/ha", "value": 6.0}, {"measurement": "Postemergence herbicidal rating, ZEAMX", "setting": "ZEAMX (Corn, Field) [9]; rate 0.0620 kg/ha", "value": 6.0}, {"measurement": "AMBEL preemergence herbicidal rating", "setting": "[10]; Rate 0.0620 kg/ha", "value": 9.0}, {"measurement": "AMBEL preemergence herbicidal rating", "setting": "[10]; Rate 0.1250 kg/ha", "value": 9.0}, {"measurement": "AMBEL preemergence herbicidal rating", "setting": "[10]; Rate 0.2500 kg/ha", "value": 9.0}, {"measurement": "CASOB preemergence herbicidal rating", "setting": "[11]; Rate 0.0620 kg/ha", "value": 7.0}, {"measurement": "CASOB preemergence herbicidal rating", "setting": "[11]; Rate 0.1250 kg/ha", "value": 8.0}, {"measurement": "CASOB preemergence herbicidal rating", "setting": "[11]; Rate 0.2500 kg/ha", "value": 9.0}, {"measurement": "CHEAL preemergence herbicidal rating", "setting": "[12]; Rate 0.0620 kg/ha", "value": 9.0}, {"measurement": "CHEAL preemergence herbicidal rating", "setting": "[12]; Rate 0.1250 kg/ha", "value": 9.0}, {"measurement": "CHEAL preemergence herbicidal rating", "setting": "[12]; Rate 0.2500 kg/ha", "value": 9.0}, {"measurement": "GALAP preemergence herbicidal rating", "setting": "GALAP (Galium aparine) [13]; Rate 0.0620 kg/ha", "value": 5.0}, {"measurement": "GALAP preemergence herbicidal rating", "setting": "GALAP (Galium aparine) [13]; Rate 0.1250 kg/ha", "value": 9.0}, {"measurement": "GALAP preemergence herbicidal rating", "setting": "GALAP (Galium aparine) [13]; Rate 0.2500 kg/ha", "value": 9.0}, {"measurement": "IPOHE preemergence herbicidal rating", "setting": "[14]; Rate 0.0620 kg/ha", "value": 7.0}, {"measurement": "IPOHE preemergence herbicidal rating", "setting": "[14]; Rate 0.1250 kg/ha", "value": 8.0}, {"measurement": "IPOHE preemergence herbicidal rating", "setting": "[14]; Rate 0.2500 kg/ha", "value": 7.0}, {"measurement": "GLXMAW preemergence herbicidal rating", "setting": "[15]; Rate 0.0620 kg/ha", "value": 9.0}, {"measurement": "GLXMAW preemergence herbicidal rating", "setting": "[15]; Rate 0.1250 kg/ha", "value": 9.0}, {"measurement": "GLXMAW preemergence herbicidal rating", "setting": "[15]; Rate 0.2500 kg/ha", "value": 9.0}, {"measurement": "ORYSAT preemergence herbicidal rating", "setting": "ORYSAT (Rice, Tebonnet); Rate 0.0620 kg/ha", "value": 9.0}, {"measurement": "ORYSAT preemergence herbicidal rating", "setting": "ORYSAT (Rice, Tebonnet); Rate 0.1250 kg/ha", "value": 9.0}, {"measurement": "ORYSAT preemergence herbicidal rating", "setting": "ORYSAT (Rice, Tebonnet); Rate 0.2500 kg/ha", "value": 9.0}, {"measurement": "TRZAWR preemergence herbicidal rating", "setting": "[16]; Rate 0.0620 kg/ha", "value": 9.0}, {"measurement": "TRZAWR preemergence herbicidal rating", "setting": "[16]; Rate 0.1250 kg/ha", "value": 9.0}, {"measurement": "TRZAWR preemergence herbicidal rating", "setting": "[16]; Rate 0.2500 kg/ha", "value": 9.0}, {"measurement": "ZEAMX preemergence herbicidal rating", "setting": "ZEAMX (Corn, Field) [17]; Rate 0.0620 kg/ha", "value": 9.0}, {"measurement": "ZEAMX preemergence herbicidal rating", "setting": "ZEAMX (Corn, Field) [17]; Rate 0.1250 kg/ha", "value": 9.0}, {"measurement": "ZEAMX preemergence herbicidal rating", "setting": "ZEAMX (Corn, Field) [17]; Rate 0.2500 kg/ha", "value": 9.0}, {"measurement": "herbicidal rating, ECHORC", "setting": "[18]; rate 0.0080 kg/ha", "value": 3.0}, {"measurement": "herbicidal rating, ECHORC", "setting": "[18]; rate 0.0320 kg/ha", "value": 9.0}, {"measurement": "herbicidal rating, ECHORC", "setting": "[18]; rate 0.1250 kg/ha", "value": 9.0}, {"measurement": "herbicidal rating, CYPIR", "setting": "CYPIR (Cyperus iria); rate 0.0080 kg/ha", "value": 0.0}, {"measurement": "herbicidal rating, CYPIR", "setting": "CYPIR (Cyperus iria); rate 0.0320 kg/ha", "value": 9.0}, {"measurement": "herbicidal rating, CYPIR", "setting": "CYPIR (Cyperus iria); rate 0.1250 kg/ha", "value": 9.0}, {"measurement": "herbicidal rating, CYPSE", "setting": "[19]; rate 0.0320 kg/ha", "value": 9.0}, {"measurement": "herbicidal rating, CYPSE", "setting": "[19]; rate 0.1250 kg/ha", "value": 9.0}, {"measurement": "herbicidal rating, SAGPY", "setting": "[20]; rate 0.0080 kg/ha", "value": 0.0}, {"measurement": "herbicidal rating, SAGPY", "setting": "[20]; rate 0.0320 kg/ha", "value": 7.0}, {"measurement": "herbicidal rating, SAGPY", "setting": "[20]; rate 0.1250 kg/ha", "value": 9.0}]}]}
